Assays:
purified CK2 holoenzyme = biological target: T1, purified CK2 holoenzyme (Homo sapiens, UniProt P68400); assay: in vitro kinase assay of purified CK2 holoenzyme; assay type: biochemical; details: 10 nM
T1 construct: purchased Promega, Madison, Wis
From the text: (§1) P=supercoiled plasmid only.

[1] = system: ARF/topoisomerase I complex; assay: topo I immunoprecipitation followed by ARF Western in treated cells; assay type: cell-based, human; details: H23 cells treated with CK2 activator
CK2 protein (α subunit) = biological target: T2, CK2 protein (α subunit) (Homo sapiens, UniProt P68400); assay: Western analysis of CK2 protein in lysates of treated cells; assay type: cell-based; details: H23 cells, 72 hours
T2 construct: endogenous in cells; host or cells: H23 cells (lysates)
T2 sequence (P68400 whole entry): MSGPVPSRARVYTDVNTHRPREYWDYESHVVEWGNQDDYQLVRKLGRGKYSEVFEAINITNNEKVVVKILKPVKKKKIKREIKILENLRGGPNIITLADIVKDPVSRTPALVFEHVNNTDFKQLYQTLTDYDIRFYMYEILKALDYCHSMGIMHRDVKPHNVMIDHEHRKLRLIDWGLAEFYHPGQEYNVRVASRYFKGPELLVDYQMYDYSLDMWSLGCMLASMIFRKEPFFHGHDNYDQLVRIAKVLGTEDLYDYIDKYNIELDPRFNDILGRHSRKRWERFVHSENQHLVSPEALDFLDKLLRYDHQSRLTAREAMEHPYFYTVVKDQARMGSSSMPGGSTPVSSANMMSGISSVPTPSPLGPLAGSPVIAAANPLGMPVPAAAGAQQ

H23 cells = assay: cell viability assay with camptothecin, H23; assay type: cell-based, human
Method: Control cells received no pretreatment. […] CK2 activator treatment was for the duration of the assay. Cell viability was scored 3 days post-start of camptothecin treatment.
Viability assays were performed 24 hours post-vector treatment by exposing cells for 24 hours to increasing doses of camptothecin (a topoisomerase I inhibitor) in triplicate in a 96-well viability assay, and assaying them for viability 5 days post-start of vector treatment (FIG. 5B). For each growth curve, cell viabilities were normalized to the viability of cells treated with vector only (no camptothecin), to enable a direct visualization of the sensitization effect.
Studies of a large panel of cell lines have shown that cell lines with overexpressed CK2 (FIGS. 11B1-B3 and 11C1-C3) display hyper serine phosphorylation of topo I (FIG. 11D) that correlates with sensitivity to camptothecin (FIG. 11A). […] Cells were plated at 2000 cells per well and allowed to attach. Triplicate wells were then treated with the indicated doses of camptothecin for 18 hours, and monitored for viability 3 days post-start of treatment. Viability is represented as a % of control, untreated, cell viability. Referring to FIGS. 11B1-B3, PKC (B1), cdk1 (B2), and CK2 (B3) levels in cancer cell lines: Cell lysates were prepared from the indicated cancer cell lines and assayed for enzymatic activities, or evaluated by Western analysis for total PKC, cdk1, or CK2 protein levels. Actin levels served as a control (same control for PKC, cdk1, and CK2). Referring to FIGS. 11C1-C3 PKC (C1), cdk1 (C2), and CK2 (C3) levels in normal cell lines, compared to H358 and H23: Cell lysates were prepared from the indicated cell lines and evaluated as before. Numbers below Western blots indicate digital reading of band intensities of PCK, cdk1, or CK2 Western blots, relative to H358. Referring to FIG. 11D, topo-I immunoprecipitation followed by topo-I Western (top row) or phosphoserine Western (bottom row). Numbers below Western blot are digital readings of ser-P band intensities relative to H358.

purified PKC = assay: in vitro kinase assay of purified PKC; details: 10 nM
PKC = assay: endogenous PKC activity in lysates of treated H23 cells; details: H23 cells treated with 10 nM, three day assay
CK2α transcription = assay: RT-PCR of CK2α mRNA in treated H23 cells; details: 10 nM, 3 days
[2] = system: topo I phosphoserine 506 epitope; assay: Western of phosphoserine 506 epitope of topo I in treated cells; assay type: cell-based, human; details: H23 cells treated as in FIG. 13B
topoisomerase I = topoisomerase I plasmid relaxation assay with nuclear extracts of treated cells; assay type: cell-based, human; details: H23 cells, 72 hours after treatment, 0.75 μg lysates protein per reaction
purified cdk1 = biological target: T3, purified cdk1 (Homo sapiens, UniProt P06493); assay: in vitro kinase assay of purified cdk1; assay type: biochemical; details: 10 nM
T3 construct: purchased Enzo Life Sciences, Farmingdale, N.Y
T3 sequence (P06493 whole entry, species assumed): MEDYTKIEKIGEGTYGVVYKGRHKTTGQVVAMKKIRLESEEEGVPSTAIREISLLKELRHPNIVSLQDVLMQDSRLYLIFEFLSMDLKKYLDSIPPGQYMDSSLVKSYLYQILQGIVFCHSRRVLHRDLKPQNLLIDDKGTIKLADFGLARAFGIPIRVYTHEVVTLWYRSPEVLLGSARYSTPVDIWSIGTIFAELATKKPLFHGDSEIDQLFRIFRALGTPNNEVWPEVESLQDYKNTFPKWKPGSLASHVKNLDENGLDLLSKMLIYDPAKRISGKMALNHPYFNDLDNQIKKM
T3 sequence (P14635 whole entry partner, species assumed): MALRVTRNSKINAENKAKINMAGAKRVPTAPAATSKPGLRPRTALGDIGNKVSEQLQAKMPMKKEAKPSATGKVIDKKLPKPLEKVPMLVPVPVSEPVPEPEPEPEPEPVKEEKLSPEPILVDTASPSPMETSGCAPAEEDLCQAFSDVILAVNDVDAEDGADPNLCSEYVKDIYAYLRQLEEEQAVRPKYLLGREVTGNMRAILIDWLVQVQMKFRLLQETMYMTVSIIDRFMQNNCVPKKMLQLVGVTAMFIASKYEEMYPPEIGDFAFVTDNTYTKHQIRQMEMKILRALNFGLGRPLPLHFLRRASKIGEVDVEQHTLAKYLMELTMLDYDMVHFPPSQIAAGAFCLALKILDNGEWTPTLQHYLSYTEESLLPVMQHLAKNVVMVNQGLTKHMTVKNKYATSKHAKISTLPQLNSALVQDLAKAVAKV
From the text: as §1

[3] = system: topo I serine phosphorylation; assay: topo I immunoprecipitation followed by phosphoserine Western in treated cells; details: H23 cells, digital quantitation of band intensities
cdk1 = cdk1 (Homo sapiens, UniProt P06493); assay: endogenous cdk1 activity in lysates of treated H23 cells; assay type: cell-based; set-up: endogenous in cells; host or cells: H23 cells (lysates); details: H23 cells treated with 10 nM, three day assay
Sequence of cdk1 (P06493 whole entry): as the sequence (P06493 whole entry, species assumed) above
Sequence of cdk1 (P14635 whole entry partner): as the sequence (P14635 whole entry partner, species assumed) above
From the text: as §1

CK2 = CK2 activity in nuclear extracts of treated H358 or H23 cells; assay type: cell-based, human
CK2α catalytic subunit = biological target: T4, CK2α catalytic subunit (Homo sapiens, UniProt P68400); assay: in vitro kinase assay of purified CK2α catalytic subunit; assay type: biochemical; details: 10 nM
T4 construct: purchased Active Motif, Carlsbad, Calif
T4 sequence (P68400 whole entry): as the sequence (P68400 whole entry) above
From the text: as §1

T1 sequence (P68400 whole entry): as above
T1 sequence (P67870 whole entry partner): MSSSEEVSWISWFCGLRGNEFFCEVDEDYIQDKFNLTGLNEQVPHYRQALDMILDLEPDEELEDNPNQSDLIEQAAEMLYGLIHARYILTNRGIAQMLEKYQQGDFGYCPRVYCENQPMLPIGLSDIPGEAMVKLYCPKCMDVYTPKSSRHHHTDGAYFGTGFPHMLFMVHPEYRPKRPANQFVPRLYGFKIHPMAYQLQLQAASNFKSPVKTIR

- stimulation of purified CK2 holoenzyme activity (purified CK2 holoenzyme): ~6 fold
- CK2 protein accumulation (CK2 protein (α subunit)): enhances the accumulation of CK2 protein
- effect on purified PKC activity (purified PKC): no effect
- effect on purified cdk1 activity (purified cdk1): no effect
- effect on endogenous cdk1 activity (cdk1): no effect
- stimulation of CK2α catalytic subunit activity (CK2α catalytic subunit): ~6 fold
Structure (SMILES): CCn1cnc(C(N)=O)c1C(N)=O [CK2 activator]
- p14ARF/topo I complex formation [1]: complex formation occurs
- effect on cell viability (activator alone) (H23 cells; 10 nM): no effect on cell viability
- change of cellular response to camptothecin (H23 cells; 10 nM activator for duration of assay, camptothecin 18 hours, 3-day viability): more sensitive to camptothecin
- lowest dose that could activate CK2 while having no effect on cell viability (H23 cells; range of 5-100 nM tested): 10 nM
- effect on endogenous PKC activity (PKC): no effect
- CK2α transcription (CK2α transcription): not CK2α transcription
- cellular levels of the phosphoserine 506 epitope [2]: induces cellular levels of the phosphorylated epitope
- conversion of supercoiled plasmid to relaxed form by nuclear extract (topoisomerase I): converts virtually all of the supercoiled form to relaxed form
- increase in topo I phosphorylation relative to untreated H23 cells [3]: ~4.7 fold
- increase in CK2 activity relative to untreated cells (CK2; H23 cells, 10 nM for duration of assay): 4 fold
- increase in CK2 activity (CK2; H358 cells, similar treatment (data not shown)): 10%
